Experimental data published in PubChem BioAssay AID1919005 (Molecular Pharmacology Branch, DTP, NCI, 2023).

Tested on: 855422-203-R-J1-PDC complex spheroid growth
Experiment: Anticancer human tumor 855422-203-R-J1-PDC patient-derived bladder carcinoma cell line growth inhibition [AhR]
Details: for IC50: curve of first compound; for viability, T/C: stronger effect = lower value
Method in brief: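 Spheroids combined tumor cells with HUVEC endothelial cells and human MSCs as stroma. AhR antagonists were paired with standard or investigational drugs, each dosed in half-log steps down from near clinical Cmax, or from 10 microM where Cmax was unknown.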
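Further: spheroids exposed to agents for seven days before readout.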
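Wherever viability, T/C is given: percent of DMSO vehicle control luminescence viability.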

COc1ccc([C@@H](O)c2cc(-c3ncnc4cc(N5CCOCC5)ccc34)c(F)cc2Cl)nn1 + CC(CO)NC(=O)c1cc(-c2ccc(Cl)cc2)nn(-c2cnn(C)c2)c1=O
IC50 (second compound 0.1 µM): > 10000 nM
IC50 (second compound 0.316 µM): > 10000 nM
IC50 (second compound 1 µM): > 10000 nM
IC50 (second compound 3.16 µM): > 10000 nM
IC50 (second compound 10 µM): > 10000 nM
viability, T/C (second compound 0.1 µM, first compound 0.0316 µM): 94.1%
viability, T/C (second compound 0.1 µM, first compound 0.1 µM): 85.3%
viability, T/C (second compound 0.1 µM, first compound 0.316 µM): 84.8%
viability, T/C (second compound 0.1 µM, first compound 1 µM): 86.3%
viability, T/C (second compound 0.1 µM, first compound 3.16 µM): 74.7%
viability, T/C (second compound 0.1 µM, first compound 10 µM): 58.4%
viability, T/C (second compound 0.316 µM, first compound 0.0316 µM): 96.4%
viability, T/C (second compound 0.316 µM, first compound 0.1 µM): 96.6%
viability, T/C (second compound 0.316 µM, first compound 0.316 µM): 86%
viability, T/C (second compound 0.316 µM, first compound 1 µM): 74.5%
viability, T/C (second compound 0.316 µM, first compound 3.16 µM): 74.6%
viability, T/C (second compound 0.316 µM, first compound 10 µM): 54.6%
viability, T/C (second compound 1 µM, first compound 0.0316 µM): 85.3%
viability, T/C (second compound 1 µM, first compound 0.1 µM): 90.6%
viability, T/C (second compound 1 µM, first compound 0.316 µM): 92.3%
viability, T/C (second compound 1 µM, first compound 1 µM): 86.9%
viability, T/C (second compound 1 µM, first compound 3.16 µM): 72.7%
viability, T/C (second compound 1 µM, first compound 10 µM): 55.4%
viability, T/C (second compound 3.16 µM, first compound 0.0316 µM): 91.5%
viability, T/C (second compound 3.16 µM, first compound 0.1 µM): 88.5%
viability, T/C (second compound 3.16 µM, first compound 0.316 µM): 98.9%
viability, T/C (second compound 3.16 µM, first compound 1 µM): 78.5%
viability, T/C (second compound 3.16 µM, first compound 3.16 µM): 69.6%
viability, T/C (second compound 3.16 µM, first compound 10 µM): 54%
viability, T/C (second compound 10 µM, first compound 0.0316 µM): 93.5%
viability, T/C (second compound 10 µM, first compound 0.1 µM): 103%
viability, T/C (second compound 10 µM, first compound 0.316 µM): 82%
viability, T/C (second compound 10 µM, first compound 1 µM): 84.2%
viability, T/C (second compound 10 µM, first compound 3.16 µM): 71%
viability, T/C (second compound 10 µM, first compound 10 µM): 54.4%

O=C(C=Cn1cnc(-c2cc(C(F)(F)F)cc(C(F)(F)F)c2)n1)NNc1cnccn1 + CC(CO)NC(=O)c1cc(-c2ccc(Cl)cc2)nn(-c2cnn(C)c2)c1=O
IC50 (second compound 0.1 µM): 409 nM
IC50 (second compound 0.316 µM): 279 nM
IC50 (second compound 1 µM): 326 nM
IC50 (second compound 3.16 µM): 274 nM
IC50 (second compound 10 µM): 260 nM
viability, T/C (second compound 0.1 µM, first compound 0.00949 µM): 106%
viability, T/C (second compound 0.1 µM, first compound 0.03 µM): 124%
viability, T/C (second compound 0.1 µM, first compound 0.0949 µM): 141%
viability, T/C (second compound 0.1 µM, first compound 0.3 µM): 55.2%
viability, T/C (second compound 0.1 µM, first compound 0.949 µM): 40.1%
viability, T/C (second compound 0.1 µM, first compound 3 µM): 32.1%
viability, T/C (second compound 0.316 µM, first compound 0.00949 µM): 112%
viability, T/C (second compound 0.316 µM, first compound 0.03 µM): 125%
viability, T/C (second compound 0.316 µM, first compound 0.0949 µM): 149%
viability, T/C (second compound 0.316 µM, first compound 0.3 µM): 44.6%
viability, T/C (second compound 0.316 µM, first compound 0.949 µM): 36.8%
viability, T/C (second compound 0.316 µM, first compound 3 µM): 33%
viability, T/C (second compound 1 µM, first compound 0.00949 µM): 121%
viability, T/C (second compound 1 µM, first compound 0.03 µM): 136%
viability, T/C (second compound 1 µM, first compound 0.0949 µM): 159%
viability, T/C (second compound 1 µM, first compound 0.3 µM): 51.1%
viability, T/C (second compound 1 µM, first compound 0.949 µM): 37.8%
viability, T/C (second compound 1 µM, first compound 3 µM): 31.1%
viability, T/C (second compound 3.16 µM, first compound 0.00949 µM): 108%
viability, T/C (second compound 3.16 µM, first compound 0.03 µM): 123%
viability, T/C (second compound 3.16 µM, first compound 0.0949 µM): 152%
viability, T/C (second compound 3.16 µM, first compound 0.3 µM): 43.4%
viability, T/C (second compound 3.16 µM, first compound 0.949 µM): 41.1%
viability, T/C (second compound 3.16 µM, first compound 3 µM): 28.6%
viability, T/C (second compound 10 µM, first compound 0.00949 µM): 100%
viability, T/C (second compound 10 µM, first compound 0.03 µM): 134%
viability, T/C (second compound 10 µM, first compound 0.0949 µM): 144%
viability, T/C (second compound 10 µM, first compound 0.3 µM): 39.2%
viability, T/C (second compound 10 µM, first compound 0.949 µM): 33.6%
viability, T/C (second compound 10 µM, first compound 3 µM): 31.1%
